Measured values published in patent US20240390413A1, “POLYMERS OBTAINED BY THE REACTION OF A PHENOLIC COMPOUND AND A CARBONYL COMPOUND AS ANTI-SARS-COV-2 AGENTS” (BASF SE, priority 2021, published 2024).
Like-named read-outs stand apart in the source and are kept apart here.

Tests used:
SARS-CoV-2 [1] = assay type: cell-based; settings: Calu3 cells; formulations A-1 to A-6 (1,000 to 0 μg/ml condensation product); Camostat 100 μM or 10 μM as control
SARS-CoV-2 [2] = assay type: cell-based; settings: precision cut human lung slices; 1, 10 or 100 μg/ml; water control

CN(C)C(=O)COC(=O)Cc1ccc(OC(=O)c2ccc(NC(=N)N)cc2)cc1 [Camostat]
viral titer (SARS-CoV-2 [1]): reduction observed
viral titer (SARS-CoV-2 [2]): reduced the viral titer in a dose-dependent manner
